The values that follow come from US4338320A, “Esters of 6'-hydroxycinchonine, and a method of treating arrythmia with them” (The Board of Regents of the University of Nebraska, priority 1978, dated 1982).

The structures appear in SMILES notation. “Also recorded” adds a separate entry of the source. Where two headings read alike, the source gives them in different places.

Common to all, as to type: in vivo
Series [1] concerns mice. As to the kind of experiment: Aconitine-induced arrhythmia in mice. The text has this: Aconitine was used to induce arrhythmia and a saline solution served as the control for a third group.
A dosage in the same range as that previously set forth for cupreidine was utilized with mice for the compounds 6-benzylcinchonine and 6'-allylcinchonine. Aconitine was used to induce arrhythmia and a saline solution was used with the control group.

Series [2] has as its system mice. As to the kind of experiment: Lethal dose in mice (dose probit curve). The settings on record: result in words. As for the experimental part: (§1) Mice were treated at varying dosage levels for both quinidine and cupreidine. A dose probit curve was generated for the effective dose and lethal dose of each compound. The respective ED50 and LD50 values were derived from those curves using techniques well known to those skilled in the art.

A short description of series [3]: Lethal dose in mice (dose probit curve). To be noted: mouse, in vivo; mice; from dose probit curve. On the procedure:
as §1

Series [4] relates to mice. The experiment in a line: Antiarrhythmic effective dose in mice (dose probit curve). To be noted: for ED50: Mus musculus. On the procedure: as §1
The mark [5] stands for this setting: Table III, dosage in the same range as for cupreidine, saline control 160. ± 5.
Setting [6] is: Table III, dosage in the same range as for cupreidine, saline control 186. ± 6.
Where [7] appears, read: Table II, intraperitoneal, cupreidine about 20.6 to about 26.8 mg/kg, quinidine 19.5-25.8 mg/kg, saline control 193. ± 11.

Take `C=CCOc1ccc2nccc([C@H](O)[C@H]3C[C@@H]4CCN3C[C@@H]4C=C)c2c1` [6'-Allylcinchonine, 6'-Allyloxycinchonine]: in the series with mice [1] (setting [5]), the “Onset of Arrhythmia (time in seconds)” value worked out at 215. ± 9 seconds. The “Onset of Ventricular Tachycardia (time in seconds)” value (“Onset of Ventricular Tachycardia” below) with mice [1] (setting [6]) is listed as 261. ± 11 seconds.

For `C=C[C@H]1CN2CC[C@H]1C[C@@H]2[C@@H](O)c1ccnc2ccc(OCc3ccccc3)cc12` [6-Benzylcinchonine, 6'-Benzyloxycinchonine], in the series with mice [1] (setting [5]), the “Onset of Arrhythmia (time in seconds)” value is on record as 195. ± 8 seconds. Also, the “Onset of Ventricular Tachycardia” value in the series on mice [1] (setting [6]) is 217. ± 6 seconds.

Take `C=CC1CN2CCC1CC2C(O)c1ccnc2ccc(O)cc12` (stereo not shown) [Cupreidine, 6'-hydroxycinchonine]: the “toxicity relative to quinidine” value in the series on mice [2] is “greatly reduced toxicity”. In series [3], the median lethal dose (LD50) stood at 304 mg/kg. In addition, the “Onset of Arrhythmia (time in seconds)” value in the series on mice [1] (Table II, intraperitoneal, cupreidine about 20.6 to about 26.8 mg/kg, quinidine 19.5-25.8 mg/kg, saline control 153. ± 5) is reported as 198. ± 8 seconds. Also, the “Onset of Ventricular Tachycardia” value in the series with mice [1] (setting [7]) came out at 250. ± 22 seconds. For the same compound, the 50% effective dose (ED50) in the series on mice [4] turned out to be 23.5 mg/kg. For the same compound, the “effectiveness as an antiarrhythmic agent, relative to quinidine” value in the series with mice [4] (result in words) is recorded as “equal or superior to quinidine; also recorded: comparable to that of quinidine”.

For `C=C[C@H]1C[N@@]2CC[C@H]1C[C@@H]2[C@@H](O)c1ccnc2ccc(OC)cc12` [Quinidine, reference compound], in series [3], the 50% lethal dose (LD50) was 202 mg/kg. In addition, the “Onset of Ventricular Tachycardia” value with mice [1] (setting [7]) came out at 294. ± 44 seconds. In addition, the median effective dose (ED50) in the series on mice [4] (mice, from dose probit curve, read-out: ED50) came out at 22.4 mg/kg.
